Patent publication US7776558B2, “Human G protein-coupled receptor and modulators thereof for the treatment of cell death-related disorders” (Arena Pharmaceuticals, Inc., priority 2003, dated 2010)
“Also recorded” adds a separate entry of the source. Where no end group is shown, it is not given here.

Columns and labels:
[1] = tested on: serum-deprived differentiated SH-SY5Y cells; test: Cell death of serum-deprived differentiated SH-SY5Y cells; format: cell-based, human; settings: serum-free medium 6 days; LDH assay (panel A) or Trypan Blue staining (panel B); FIG. 10
Procedure: Briefly, SH-SY5Y cells were differentiated into neuronal-like cells by treatment with retinoic acid (10 μM) for five days followed by treatment with BDNF (10 ng/ml) for two days. […] Cell viability was determined by lactate dehydrogenase (LDH) assay (Roche, Indianapolis, Ind.; catalog no. 1644793) or by trypan blue staining. LDH is a stable cytoplasmic enzyme present in all cells which is rapidly released upon damage to the plasma membrane. The level of LDH is inversely proportional to the number of viable cells. The LDH assay was carried out as per manufacturer's instructions.

[2] = tested on: primary mouse cortical neurons; test: 22C11 (anti-APP antibody)-induced cell death of primary mouse cortical neurons; format: cell-based; settings: added 1 h prior to mAb 22C11; overnight (~18 h); LDH assay; FIG. 11B
Text: 22C11 is a monoclonal antibody (mAb) which binds to the extracellular domain of the human, rat or mouse β-amyloid precursor protein (APP) (Boehringer Mannheim; Indianapolis, Ind.).
The assay was set up essentially as described by Rohn et al. [Neurochem (2000) 74:2331-2342]. Briefly, the primary cultures of mouse cortical neurons were established from E17 embryos. The gestational pups were humanely decapitated, and the brain was harvested into Hanks Buffered Salt Solution (HBSS) buffer. The cortices were taken and processed with trypsin (0.05% in HBSS), after which the cells were mechanically dissociated using a 21 g needle. The cell suspension was then passed through a […] filter, and the recovered cells plated on poly-D-lysine-treated 12-well plates. After five days of culture, the cells were used for assay.
For the assay, four experimental groups were set up. […] In the “22C11” group, cells were cultured in the presence of mAb 22C11 alone. […] The assay was allowed to proceed overnight (˜18 h), after which cell viability was determined by LDH assay as described in Example 25.

neuronal cells = settings: cited from earlier work
FPR = biological target: T1, FPR (Homo sapiens, UniProt P21462); test: [35S]GTPγS binding assay, membranes of transiently transfected CHO cells; format: biochemical; set-up: Full-Length Cloning of Human GPCRs; expressed in transfected cells; host or cells: CHO-K1 cells, transient, pCMV; plasma membranes; settings: FIG. 3 panel C; up to a dose of 10 μM
T1 sequence (P21462 1-350): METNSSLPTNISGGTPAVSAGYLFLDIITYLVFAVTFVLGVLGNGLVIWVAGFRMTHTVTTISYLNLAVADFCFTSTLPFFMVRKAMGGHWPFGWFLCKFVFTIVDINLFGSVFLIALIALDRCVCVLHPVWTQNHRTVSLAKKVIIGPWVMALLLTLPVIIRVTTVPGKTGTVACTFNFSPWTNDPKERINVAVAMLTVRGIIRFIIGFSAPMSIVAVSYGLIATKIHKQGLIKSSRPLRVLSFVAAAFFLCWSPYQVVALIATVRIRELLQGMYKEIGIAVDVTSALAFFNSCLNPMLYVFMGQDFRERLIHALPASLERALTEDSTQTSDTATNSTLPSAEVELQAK
Procedure: The plasmids used were HA/V5 doubled tagged endogenous FPRL2 in pCMV, HA/V5 double-tagged endogenous FPRL1 in pCMV, HAN5 double-tagged endogenous FPR in pCMV, and pCMV alone (See, Example 1). Transient transfections were carried out on CHO-K1 cells. To a 15 cm dish of confluent cells, 12 μg of plasmid DNA and 60 μl Lipofectamine (Invitrogen, Carlsbad, Calif.) were added to each plate. Twenty-four hours post-infection, plasma membranes were isolated as described below. Assays were then run as described below.
“Membrane Scrape Buffer” consists of 20 mM HEPES and 10 mM EDTA, pH 7.4; “Membrane Wash Buffer” consists of […] and 0.1 mM EDTA, pH 7.4; “Binding. Buffer” consists of 20 mM HEPES, 100 mM NaCl, and 10 mM MgCl2, pH 7.4.
All materials were kept on ice throughout the procedure. Firstly, the media was aspirated from a confluent monolayer of transfected cells, followed by rinse with 10 ml cold PBS, followed by aspiration. Thereafter, 10 ml of Membrane Scrape Buffer was added to scrape cells; this was followed by transfer of cellular extract into 50 ml centrifuge tubes (centrifuged at 20,000 rpm for 17 minutes at 4° C.). […]
First, 100 μl GDP Buffer was added to each well of a Wallac Scintistrip™ (Wallac). […] The plates were then read on a Wallac 1450 using setting “Prot. #37” (as per manufacturer instructions).

Row | Compound | Inhibition of cell death of serum-deprived SH-SY5Y cells [1] | Protection from cell death induced by anti-APP mAb 22C11 [2] | Protection of neuronal cells from toxic insults (neuronal cells; Alzheimer's disease-relevant toxicity, three mutant FAD genes and Aβ) | Rescue of cortical neurons from prion-peptide-induced apoptosis (neuronal cells; Sponne et al. 2004) | Protective activity for neurons against serum deprivation (neuronal cells; Takahashi et al. 2002) | Activity at FPR, promoted [35S]GTPγS binding (FPR) | Activity relative to Humanin (neuronal cells; Niikura et al. 2002)
1 | CC(C)c1ccc2c(c1)CCC1C(C)(C(N)=O)CCCC21C (stereo not shown) [Compound 1, 7-Isopropyl-1,4a-dimethyl-1,2,3,4,4a,9,10,10a-octahydro-phenanthrene-1-carboxylic acid amide] | inhibit cell death | protect primary mouse cortical neurons from cell death | – | – | – | – | –
2 | CC[C@H](C)[C@H](NC(=O)[C@H](CCC(=O)O)NC(=O)[C@H](CO)NC(=O)[C@@H](NC(=O)[C@H](CC(C)C)NC(=O)[C@H](CC(C)C)NC(=O)[C@H](CC(C)C)NC(=O)[C@H](CC(C)C)NC(=O)[C@H](CS)NC(=O)[C@H](CO)NC(=O)[C@H](Cc1ccccc1)NC(=O)CNC(=O)[C@H](CCCNC(=N)N)NC(=O)[C@@H]1CCCN1C(=O)[C@H](C)NC(=O)[C@@H](N)CCSC)[C@@H](C)O)C(=O)N[C@@H](CC(=O)O)C(=O)N[C@@H](CC(C)C)C(=O)N1CCC[C@H]1C(=O)N[C@H](C(=O)N[C@@H](CCCCN)C(=O)N[C@@H](CCCNC(=N)N)C(=O)N[C@@H](CCCNC(=N)N)C(=O)N[C@@H](C)C(=O)O)C(C)C [Humanin] | inhibit cell death | protect primary mouse cortical neurons from cell death | protect neuronal cells from Alzheimer's disease-relevant toxicity; also recorded: protect neuronal cells from a number of toxic insults | rescue cortical neurons from prion-peptide-induced apoptosis | protective activity for neurons against serum deprivation | Neither Humanin nor [Gly14]-Humanin evidence significant activity | –
3 | MAPRGFSCLLLLTGEIDLPVKRRA [[Gly14]-Humanin] | – | – | – | – | – | Neither Humanin nor [Gly14]-Humanin evidence significant activity | significantly more active than Humanin
